Columns and labels:
Format in all cases: in vivo
[1] = tested on: field corn (Zea mays var. Pioneer 3732); experiment: Preemergence herbicidal activity, corn; conditions: Rate of Application 0.3 Kg/Ha, examined after 12-17 days
[2] = tested on: common cocklebur (Xanthium strumarium L.); experiment: Preemergence herbicidal activity, cocklebur; conditions: Rate of Application 0.3 Kg/Ha, examined after 12-17 days
[3] = tested on: blackgrass (Aloepecurus myosuroides); experiment: Preemergence herbicidal activity, blackgrass; conditions: Rate of Application 0.3 Kg/Ha, examined after 12-17 days
[4] = tested on: morningglory (Ipomea lacunosa or Ipomea hederacea); experiment: Preemergence herbicidal activity, morningglory; conditions: Rate of Application 0.3 Kg/Ha, examined after 12-17 days
[5] = tested on: Johnsongrass (Sorghum halepense); experiment: Preemergence herbicidal activity, johnsongrass; conditions: Rate of Application 0.3 Kg/Ha, examined after 12-17 days
[6] = tested on: green foxtail (Setaria viridis); experiment: Preemergence herbicidal activity, green foxtail; conditions: Rate of Application 0.3 Kg/Ha, examined after 12-17 days
[7] = tested on: velvetleaf (Abutilon theophrasti); experiment: Preemergence herbicidal activity, velvetleaf; conditions: Rate of Application 0.3 Kg/Ha, examined after 12-17 days
[8] = tested on: wheat (Triticum aestivum var. Lew); experiment: Preemergence herbicidal activity, wheat; conditions: Rate of Application 0.3 Kg/Ha, examined after 12-17 days
[9] = tested on: common chickweed (Stellaria media); experiment: Preemergence herbicidal activity, chickweed; conditions: Rate of Application 0.3 Kg/Ha, examined after 12-17 days
[10] = tested on: blackgrass (Aloepecurus myosuroides); experiment: Postemergence herbicidal activity, blackgrass; conditions: rate of application 0.3 Kg/Ha, rated after 12-17 days
Experimental: The benzofused heterocyclic compounds of this invention were tested for pre- and postemergence herbicidal activity using a variety of crops and weeds. The test plants included soybean (Glycine max var. Winchester), field corn (Zea mays var. Pioneer 3732), wheat (Triticum aestivum var. Lew), morningglory (Ipomea lacunosa or Ipomea hederacea), velvetleaf (Abutilon theophrasti), green foxtail (Setaria viridis), Johnsongrass (Sorghum halepense), blackgrass (Aloepecurus myosuroides), common chickweed (Stellaria media), and common cocklebur (Xanthium strumarium L.).
For preemergence testing, two disposable fiber flats (8 cm×15 cm×25 cm) for each rate of application of each candidate herbicide were filled to an approximate depth of 6.5 cm with steam-sterilized sandy loam soil. The soil was leveled and impressed with a template to provide five evenly spaced furrows 13 cm long and 0.5 cm deep in each flat. Seeds of soybean, wheat, corn, green foxtail, and johnsongrass were planted in the furrows of the first flat, and seeds of velvetleaf, morningglory, common chickweed, cocklebur, and blackgrass were planted in the furrows of the second flat. The five-row template was employed to firmly press the seeds into place. A topping soil of equal portions of sand and sandy loam soil was placed uniformly on top of each flat to a depth of approximately 0.5 cm. Flats for postemergence testing were prepared in the same manner except that they were planted 9-14 days prior to the preemergence flats and were placed in a greenhouse and watered, thus allowing the seeds to germinate and the foliage to develop.
In both pre- and postemergence tests, a stock solution of the candidate herbicide was prepared by dissolving 0.27 g of the compound in 20 mL of water/acetone (50/50) containing 0.5% v/v sorbitan monolaurate. For an application rate of 3000 g/ha of herbicide a 10 mL portion of the stock solution was diluted with water/acetone (50/50) to 45 mL.
The preemergence flats were initially subjected to a light water spray. The four flats were placed two by two along a conveyor belt (i.e., the two preemergence followed by the two postemergence flats). The conveyor belt fed under a spray nozzle mounted about ten inches above the post-emergent foliage. The preemergent flats were elevated on the belt so that the soil surface was at the same level below the spray nozzle as the foliage canopy of the postemergent plants. The spray of herbicidal solution was commenced and once stabilized, the flats were passed under the spray at a speed to receive a coverage equivalent of 100 L/ha. At this coverage the application rates are those shown in the above table for the individual herbicidal solutions. The preemergence flats were watered immediately thereafter, placed in the greenhouse and watered regularly at the soil surface. The postemergence flats were immediately placed in the green-house and not watered until 24 hours after treatment with the test solution. Thereafter they were regularly watered at ground level. After 12-17 days the plants were examined and the phytotoxicity data were recorded.
Phytotoxicity data were taken as percent control. Percent control was determined by a method similar to the 0 to 100 rating system disclosed in “Research Methods in Weed Science,” 2nd ed., B. Truelove, Ed.; Southern Weed Science Society; Auburn University, Auburn, Ala., 1977.

[11] = tested on: wheat (Triticum aestivum var. Lew); experiment: Postemergence herbicidal activity, wheat; conditions: rate of application 0.3 Kg/Ha, rated after 12-17 days
[12] = tested on: soybean (Glycine max var. Winchester); experiment: Postemergence herbicidal activity, soybean; conditions: rate of application 0.3 Kg/Ha, rated after 12-17 days
[13] = tested on: field corn (Zea mays var. Pioneer 3732); experiment: Postemergence herbicidal activity, corn; conditions: rate of application 0.3 Kg/Ha, rated after 12-17 days
[14] = tested on: morningglory (Ipomea lacunosa or Ipomea hederacea); experiment: Postemergence herbicidal activity, morningglory; conditions: rate of application 0.3 Kg/Ha, rated after 12-17 days
[15] = tested on: velvetleaf (Abutilon theophrasti); experiment: Postemergence herbicidal activity, velvetleaf; conditions: rate of application 0.3 Kg/Ha, rated after 12-17 days
[16] = tested on: Johnsongrass (Sorghum halepense); experiment: Postemergence herbicidal activity, johnsongrass; conditions: rate of application 0.3 Kg/Ha, rated after 12-17 days
[17] = tested on: soybean (Glycine max var. Winchester); experiment: Preemergence herbicidal activity, soybean; conditions: Rate of Application 0.3 Kg/Ha, examined after 12-17 days
[18] = tested on: green foxtail (Setaria viridis); experiment: Postemergence herbicidal activity, green foxtail; conditions: rate of application 0.3 Kg/Ha, rated after 12-17 days
[19] = tested on: common cocklebur (Xanthium strumarium L.); experiment: Postemergence herbicidal activity, cocklebur; conditions: rate of application 0.3 Kg/Ha, rated after 12-17 days

Row | Structure (SMILES) | PREEMERGENCE HERBICIDAL ACTIVITY (% CONTROL) CRN [1] | PREEMERGENCE HERBICIDAL ACTIVITY (% CONTROL) XANPE [2] | PREEMERGENCE HERBICIDAL ACTIVITY (% CONTROL) ALOMY [3] | PREEMERGENCE HERBICIDAL ACTIVITY (% CONTROL) IPOSS [4] | PREEMERGENCE HERBICIDAL ACTIVITY (% CONTROL) SORHA [5] | PREEMERGENCE HERBICIDAL ACTIVITY (% CONTROL) SETVI [6] | PREEMERGENCE HERBICIDAL ACTIVITY (% CONTROL) ABUTH [7] | PREEMERGENCE HERBICIDAL ACTIVITY (% CONTROL) WHT [8] | PREEMERGENCE HERBICIDAL ACTIVITY (% CONTROL) STEME [9] | Postemergence herbicidal activity (% control) ALOMY [10] | Postemergence herbicidal activity (% control) WHT [11] | Postemergence herbicidal activity (% control) SOY [12] | Postemergence herbicidal activity (% control) CRN [13] | Postemergence herbicidal activity (% control) IPOSS [14] | Postemergence herbicidal activity (% control) ABUTH [15] | Postemergence herbicidal activity (% control) SORHA [16] | PREEMERGENCE HERBICIDAL ACTIVITY (% CONTROL) SOY [17] | Postemergence herbicidal activity (% control) SETVI [18] | Postemergence herbicidal activity (% control) XANPE [19]
1 | Cn1c(C(F)(F)F)cc(=O)n(-c2c(F)cc(Cl)c3cc(CCF)oc23)c1=O [Compound 237] | 90% | 100% | 100% | 100% | 100% | 100% | 100% | 90% | 100% | 100% | 95% | 100% | 100% | 100% | 100% | 100% | 100% | 100% | 100%
2 | Cn1c(C(F)(F)F)cc(=O)n(-c2c(F)cc(Cl)c3cc(C(C)(C)N)oc23)c1=O [Compound 254] | 80% | 50% | 60% | 50% | 80% | 100% | 100% | 20% | 30% | 50% | 40% | 95% | 80% | 70% | 100% | 80% | 25% | 100% | 95%
3 | Cn1c(C(F)(F)F)cc(=O)n(-c2c(F)cc(Cl)c3nc(CCCc4ccccc4)[nH]c23)c1=O [Compound 380] | 20% | 80% | 90% | 100% | 70% | 100% | 100% | 35% | – | 70% | 30% | 95% | 95% | 100% | 100% | 80% | 80% | 100% | 100%
4 | Cn1c(C(F)(F)F)cc(=O)n(-c2c(F)cc(Cl)c3nc(CCc4ccccc4)[nH]c23)c1=O [Compound 379] | 70% | 100% | 80% | 100% | 95% | 100% | 100% | 50% | – | 70% | 80% | 95% | 100% | 100% | 100% | 100% | 100% | 100% | 100%
5 | Cn1c(C(F)(F)F)cc(=O)n(-c2c(F)cc(Cl)c3nc(Cc4cccc(Cl)c4)[nH]c23)c1=O [Compound 382] | 30% | 60% | 90% | 70% | 80% | 95% | 100% | 45% | – | 80% | 40% | 80% | 100% | 100% | 100% | 80% | 60% | 90% | 100%

Source: patent US6352958B1, “Cycloimido-substituted benzofused heterocyclic herbicides” (FMC Corporation, priority 1997, dated 2002)
